Reference: ChEMBL document CHEMBL4304761, “Alkylsulfonamide-containing quinazoline derivatives as potent and orally bioavailable PI3Ks inhibitors” (Bioorg Med Chem, 2019)
The source made the active and inactive calls. No cut-off for these calls is given here.

Tests used:
[1] = test system: MCF7; test: Antiproliferative activity against human MCF7 cells harboring PIK3CA mutant E545K measured after 72 hrs by MTT assay; assay type: functional, cell-based; conditions: MCF7, 72 h
[2] = test system: SU-DHL-6; test: Antiproliferative activity against human SUDHL6 cells measured after 72 hrs by CCK-8 assay; assay type: functional, cell-based; conditions: SU-DHL-6, 72 h
[3] = test system: HCT-116; test: Antiproliferative activity against human HCT116 cells harboring PIK3CA mutant H1047R measured after 72 hrs by MTT assay; assay type: functional, cell-based; conditions: HCT-116, 72 h
[4] = target: T1, Phosphatidylinositol 4,5-bisphosphate 3-kinase catalytic subunit alpha isoform (Homo sapiens, UniProt P42336); test: Inhibition of PI3K alpha (unknown origin) using lipid substrate measured after 40 mins in presence of ATP by Kinase-Glo plus reagent based luminescence assay
T1 sequence (P42336 whole entry, canonical isoform): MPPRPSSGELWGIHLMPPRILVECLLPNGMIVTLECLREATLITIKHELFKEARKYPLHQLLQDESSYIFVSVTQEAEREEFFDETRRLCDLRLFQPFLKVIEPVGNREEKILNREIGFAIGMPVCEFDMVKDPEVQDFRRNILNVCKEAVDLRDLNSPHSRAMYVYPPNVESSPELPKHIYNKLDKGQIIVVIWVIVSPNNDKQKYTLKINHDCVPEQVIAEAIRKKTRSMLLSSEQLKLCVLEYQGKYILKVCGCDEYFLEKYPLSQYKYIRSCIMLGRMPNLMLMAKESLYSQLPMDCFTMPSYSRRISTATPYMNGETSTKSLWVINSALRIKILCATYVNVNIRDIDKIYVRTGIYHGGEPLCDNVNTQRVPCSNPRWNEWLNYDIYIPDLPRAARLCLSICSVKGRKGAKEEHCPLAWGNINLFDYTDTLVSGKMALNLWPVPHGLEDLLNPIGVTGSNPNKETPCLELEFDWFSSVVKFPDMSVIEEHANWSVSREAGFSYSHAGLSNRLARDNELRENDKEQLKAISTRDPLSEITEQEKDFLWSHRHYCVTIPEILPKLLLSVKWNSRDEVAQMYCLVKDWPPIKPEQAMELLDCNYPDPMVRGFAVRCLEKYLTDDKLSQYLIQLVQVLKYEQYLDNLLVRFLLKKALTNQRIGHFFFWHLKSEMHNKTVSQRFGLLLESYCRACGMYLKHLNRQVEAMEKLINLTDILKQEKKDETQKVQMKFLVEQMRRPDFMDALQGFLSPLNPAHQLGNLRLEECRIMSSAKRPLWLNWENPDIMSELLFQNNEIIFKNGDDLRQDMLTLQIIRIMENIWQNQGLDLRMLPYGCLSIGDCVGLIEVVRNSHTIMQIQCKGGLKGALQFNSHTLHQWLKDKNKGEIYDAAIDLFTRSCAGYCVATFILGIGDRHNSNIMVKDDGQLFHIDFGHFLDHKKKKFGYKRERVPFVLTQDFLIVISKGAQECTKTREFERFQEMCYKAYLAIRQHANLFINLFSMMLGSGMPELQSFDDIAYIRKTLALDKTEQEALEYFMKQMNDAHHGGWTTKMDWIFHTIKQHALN

[5] = test system: HCT-116; test: Antitumour activity against human HCT116 cells xenografted in BALB/c nude mouse assessed as tumour volume at 25 mg/kg, po via gavage administered once daily for 15 days and measure every three days by caliper method (reference value: 2769 +/- 536 mm3); assay type: functional
[6] = test system: HCT-116; test: Antitumour activity against human HCT116 cells xenografted in BALB/c nude mouse assessed as tumour volume at 5 mg/kg, po via gavage administered once daily for 15 days and measure every three days by caliper method (reference value: 2769 +/- 536 mm3); assay type: functional
[7] = Inhibition of PI3K/AKT/mTOR signaling in human HCT116 cells assessed as decrease in AKT phosphorylation at S473 measured after 5 hrs by Western blot analysis; assay type: cell-based
[8] = target: T2, Phosphatidylinositol 4,5-bisphosphate 3-kinase catalytic subunit delta isoform (Homo sapiens, UniProt O00329); test: Inhibition of PI3K delta (unknown origin) using lipid substrate measured after 40 mins in presence of ATP by Kinase-Glo plus reagent based luminescence assay
T2 sequence (O00329 whole entry): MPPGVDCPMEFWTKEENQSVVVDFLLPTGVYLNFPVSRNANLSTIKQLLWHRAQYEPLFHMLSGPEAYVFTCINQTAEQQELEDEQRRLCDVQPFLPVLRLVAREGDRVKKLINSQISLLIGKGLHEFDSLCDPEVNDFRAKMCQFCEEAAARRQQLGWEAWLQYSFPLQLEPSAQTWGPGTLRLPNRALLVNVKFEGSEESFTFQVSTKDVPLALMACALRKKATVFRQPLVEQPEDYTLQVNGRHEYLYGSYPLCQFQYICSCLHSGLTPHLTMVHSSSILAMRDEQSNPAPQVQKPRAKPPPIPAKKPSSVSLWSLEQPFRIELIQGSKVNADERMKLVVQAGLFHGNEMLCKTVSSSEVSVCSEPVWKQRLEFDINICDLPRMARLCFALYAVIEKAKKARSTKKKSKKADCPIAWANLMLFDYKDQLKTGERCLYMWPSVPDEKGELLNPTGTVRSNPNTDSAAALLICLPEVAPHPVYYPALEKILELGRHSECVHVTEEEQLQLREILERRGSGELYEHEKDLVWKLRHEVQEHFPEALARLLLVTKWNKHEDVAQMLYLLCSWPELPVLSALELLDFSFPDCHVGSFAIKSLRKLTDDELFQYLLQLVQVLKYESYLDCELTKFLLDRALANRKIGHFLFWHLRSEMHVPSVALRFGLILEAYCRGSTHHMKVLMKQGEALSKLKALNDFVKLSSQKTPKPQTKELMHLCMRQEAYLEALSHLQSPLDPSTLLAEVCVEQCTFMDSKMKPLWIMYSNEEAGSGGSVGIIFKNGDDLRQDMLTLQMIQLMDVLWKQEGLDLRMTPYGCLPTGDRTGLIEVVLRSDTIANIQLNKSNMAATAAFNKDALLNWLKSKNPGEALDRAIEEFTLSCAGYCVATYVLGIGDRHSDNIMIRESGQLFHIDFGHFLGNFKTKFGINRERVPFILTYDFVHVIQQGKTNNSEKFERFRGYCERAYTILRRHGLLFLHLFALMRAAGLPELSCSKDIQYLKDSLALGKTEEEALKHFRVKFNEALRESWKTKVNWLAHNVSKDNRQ

[9] = Toxicity in BALB/c nude mouse xenografted with human HCT116 cells assessed as effect on body weight at 5 to 25 mg/kg, po via gavage administered once daily for 15 days; assay type: organism-based; conditions: in vivo, 360 h
[10] = test system: HCT-116; test: Antitumour activity against human HCT116 cells xenografted in BALB/c nude mouse assessed as tumour weight at 5 mg/kg, po via gavage administered once daily for 15 days and measure every three days by caliper method (reference value: 3.2 +/- 0.32 g); assay type: functional
[11] = test system: HCT-116; test: Antitumour activity against human HCT116 cells xenografted in BALB/c nude mouse assessed as tumour weight at 25 mg/kg, po via gavage administered once daily for 15 days and measure every three days by caliper method (reference value: 3.2 +/- 0.32 g); assay type: functional
[12] = target: Phosphatidylinositol 4,5-bisphosphate 3-kinase catalytic subunit gamma isoform (Homo sapiens, UniProt P48736); test: Inhibition of PI3K gamma (unknown origin) using lipid substrate measured after 40 mins in presence of ATP by Kinase-Glo plus reagent based luminescence assay
Chain of Phosphatidylinositol 4,5-bisphosphate 3-kinase catalytic subunit gamma isoform (P48736 whole entry, canonical isoform): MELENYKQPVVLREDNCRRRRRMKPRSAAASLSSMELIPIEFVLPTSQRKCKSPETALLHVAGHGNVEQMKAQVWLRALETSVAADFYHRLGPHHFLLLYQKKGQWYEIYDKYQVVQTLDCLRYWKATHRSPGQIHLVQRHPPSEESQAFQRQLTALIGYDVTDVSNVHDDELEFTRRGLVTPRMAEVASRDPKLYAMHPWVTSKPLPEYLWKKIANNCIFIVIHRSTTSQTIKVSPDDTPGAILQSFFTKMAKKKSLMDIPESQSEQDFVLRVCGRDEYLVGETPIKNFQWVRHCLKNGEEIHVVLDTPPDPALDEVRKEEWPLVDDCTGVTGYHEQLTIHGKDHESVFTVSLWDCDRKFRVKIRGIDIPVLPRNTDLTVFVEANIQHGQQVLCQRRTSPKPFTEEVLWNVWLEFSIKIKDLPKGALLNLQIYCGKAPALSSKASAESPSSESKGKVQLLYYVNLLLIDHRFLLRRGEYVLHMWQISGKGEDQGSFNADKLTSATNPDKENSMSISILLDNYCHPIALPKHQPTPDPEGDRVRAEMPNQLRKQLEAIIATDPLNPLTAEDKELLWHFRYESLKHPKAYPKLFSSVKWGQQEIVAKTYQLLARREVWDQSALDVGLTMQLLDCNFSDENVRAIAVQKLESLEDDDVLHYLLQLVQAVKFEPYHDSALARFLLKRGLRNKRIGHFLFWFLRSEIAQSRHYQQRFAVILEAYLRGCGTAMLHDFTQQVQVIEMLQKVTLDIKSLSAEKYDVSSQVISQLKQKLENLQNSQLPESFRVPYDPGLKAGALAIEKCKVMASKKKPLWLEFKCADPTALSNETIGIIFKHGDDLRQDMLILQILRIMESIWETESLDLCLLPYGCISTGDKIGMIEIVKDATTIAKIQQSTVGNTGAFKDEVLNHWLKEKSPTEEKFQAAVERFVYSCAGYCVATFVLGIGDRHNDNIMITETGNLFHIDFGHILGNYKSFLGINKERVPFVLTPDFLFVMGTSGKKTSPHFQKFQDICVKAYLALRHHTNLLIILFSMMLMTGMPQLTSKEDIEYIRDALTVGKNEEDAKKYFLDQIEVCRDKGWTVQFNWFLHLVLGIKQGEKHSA

[13] = test system: HCT-116; test: Antitumour activity against human HCT116 cells xenografted in BALB/c nude mouse assessed as tumour growth inhibition at 5 mg/kg, po via gavage administered once daily for 15 days and measure every three days by caliper method relative to control; assay type: functional; conditions: HCT-116, po, read-out: TGI
[14] = target: Phosphatidylinositol 4,5-bisphosphate 3-kinase catalytic subunit beta isoform (Homo sapiens, UniProt P42338); test: Inhibition of PI3K beta (unknown origin) using lipid substrate measured after 40 mins in presence of ATP by Kinase-Glo plus reagent based luminescence assay
Chain of Phosphatidylinositol 4,5-bisphosphate 3-kinase catalytic subunit beta isoform (P42338 whole entry, canonical isoform): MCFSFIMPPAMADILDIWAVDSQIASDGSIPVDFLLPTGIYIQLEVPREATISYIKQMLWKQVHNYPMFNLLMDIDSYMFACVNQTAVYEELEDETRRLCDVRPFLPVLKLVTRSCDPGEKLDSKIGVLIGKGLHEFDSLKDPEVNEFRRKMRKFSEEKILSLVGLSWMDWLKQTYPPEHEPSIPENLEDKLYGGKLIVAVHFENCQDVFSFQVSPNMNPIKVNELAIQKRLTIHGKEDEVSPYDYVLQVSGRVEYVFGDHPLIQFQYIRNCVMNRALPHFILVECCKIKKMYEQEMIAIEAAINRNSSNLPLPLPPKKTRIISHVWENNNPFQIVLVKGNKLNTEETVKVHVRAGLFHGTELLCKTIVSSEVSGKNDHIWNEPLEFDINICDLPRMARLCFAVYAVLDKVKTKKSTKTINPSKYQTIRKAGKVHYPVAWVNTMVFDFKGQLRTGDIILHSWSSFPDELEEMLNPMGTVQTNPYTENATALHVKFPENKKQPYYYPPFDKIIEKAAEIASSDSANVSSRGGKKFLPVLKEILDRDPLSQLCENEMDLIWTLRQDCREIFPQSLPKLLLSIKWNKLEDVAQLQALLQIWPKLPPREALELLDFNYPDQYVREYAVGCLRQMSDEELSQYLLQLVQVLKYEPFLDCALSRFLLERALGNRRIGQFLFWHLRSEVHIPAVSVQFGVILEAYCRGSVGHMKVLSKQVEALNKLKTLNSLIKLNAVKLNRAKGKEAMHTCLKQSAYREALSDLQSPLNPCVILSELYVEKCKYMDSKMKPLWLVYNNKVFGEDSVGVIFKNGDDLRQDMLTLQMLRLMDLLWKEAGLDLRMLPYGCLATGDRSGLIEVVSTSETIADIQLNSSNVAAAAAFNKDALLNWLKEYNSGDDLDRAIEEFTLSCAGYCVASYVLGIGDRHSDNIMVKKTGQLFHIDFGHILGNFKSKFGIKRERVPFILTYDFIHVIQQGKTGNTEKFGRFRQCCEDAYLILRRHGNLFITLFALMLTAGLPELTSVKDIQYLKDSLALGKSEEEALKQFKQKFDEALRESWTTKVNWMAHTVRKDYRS

[15] = test system: HCT-116; test: Antitumour activity against human HCT116 cells xenografted in BALB/c nude mouse assessed as tumour growth inhibition at 25 mg/kg, po via gavage administered once daily for 15 days and measure every three days by caliper method relative to control; assay type: functional; conditions: HCT-116, po, read-out: TGI
[16] = target: T1, Phosphatidylinositol 4,5-bisphosphate 3-kinase catalytic subunit alpha isoform; test: Potency index, ratio of 2-methoxy-5-(4-(2-morpholinoethylamino)quinazolin-6-yl)nicotinonitrile IC50 to test compound IC50 for inhibition of PI3K alpha (unknown origin)
[17] = species on record: Homo sapiens; test: Selectivity ratio of IC50 for inhibition of PI3K delta (unknown origin) to IC50 for inhibition of PI3K alpha (unknown origin)
[18] = species on record: Homo sapiens; test: Selectivity ratio of IC50 for inhibition of PI3K gamma (unknown origin) to IC50 for inhibition of PI3K alpha (unknown origin)
[19] = species on record: Homo sapiens; test: Selectivity ratio of IC50 for inhibition of PI3K beta (unknown origin) to IC50 for inhibition of PI3K alpha (unknown origin)
[20] = Inhibition of PI3K/AKT/mTOR signaling in human HCT116 cells assessed as decrease in AKT phosphorylation at S473 at 1 uM measured after 5 hrs by Western blot analysis; assay type: cell-based

Compound	IC50 [1] [µM]	IC50 [2] [µM]	IC50 [3] [µM]	IC50 [4] [µM]	also measured
COc1ncc(-c2ccc3ncnc(NC4CCNCC4)c3c2)cc1NS(C)(=O)=O	11	≥ 100	1.3	0.0009	–
COc1ncc(-c2ccc3nccc(NCCN4CCOCC4)c3c2)cc1NS(C)(=O)=O	88	≥ 100	29	0.106	–
COc1ncc(-c2ccc3ncnc(NC4CCN(C(=O)C5CCCC5)CC4)c3c2)cc1NS(C)(=O)=O	7.9	3.3	2.8	0.0028	–
COc1ncc(-c2ccc3ncnc(NC4CCN(C(=O)OC(C)(C)C)CC4)c3c2)cc1NS(C)(=O)=O	15	9.7	1.8	0.007	–
COc1ncc(-c2ccc3ncnc(N(C)CCN(C)C)c3c2)cc1NS(C)(=O)=O	4.7	1.7	5.1	0.0077	–
COc1ncc(-c2ccc3ncnc(NC4CCN(C(C)=O)CC4)c3c2)cc1NS(C)(=O)=O	16	4.3	0.72	0.0004	–
COc1ncc(-c2ccc3ncnc(NCCN(C)C)c3c2)cc1NS(C)(=O)=O	10	1.7	8.7	0.007	–
COc1ncc(-c2ccc3ncnc(N[C@H]4CCN(C(C)=O)C4)c3c2)cc1NS(C)(=O)=O	14	≥ 100	0.29	0.0005	IC50 [8]: 0.0068 µM; Ratio IC50 [17]: 10; Ratio IC50 [18]: 10; IC50 [12]: 0.0043 µM; IC50 [14]: 0.005 µM; Ratio IC50 [19]: 10
COc1ncc(-c2ccc3ncnc(N[C@H]4CCN(C(=O)C5CCOCC5)C4)c3c2)cc1NS(C)(=O)=O	4.8	1.5	1.7	0.0007	IC50 [8]: 0.0074 µM; Ratio IC50 [17]: 10; Ratio IC50 [18]: 10; IC50 [12]: 0.0065 µM; IC50 [14]: 0.0056 µM; Ratio IC50 [19]: 10
COc1ncc(-c2ccc3ncnc(NC4CCN(C(=O)C5CCOCC5)CC4)c3c2)cc1NS(C)(=O)=O	6	≥ 100	2.9	0.0021	–

Now those with a lower IC50 [1], led by results:

IC50 [1] [µM]	IC50 [2] [µM]	IC50 [3] [µM]	IC50 [4] [µM]	Compound	also measured
1.5	0.33	1.9	0.0071	COc1ncc(-c2ccc3ncnc(NCCN4CCOCC4)c3c2)cc1NS(=O)(=O)C1CC1	–
3.7	0.32	1.6	0.012	COc1ncc(-c2ccc3ncnc(NCCN4CCCCC4)c3c2)cc1NS(C)(=O)=O	–
3.7	3	1	0.001	COc1ncc(-c2ccc3ncnc(N[C@H]4CCN(C(=O)C5CC5)C4)c3c2)cc1NS(C)(=O)=O	–
2.5	0.77	2.1	0.0023	COc1ncc(-c2ccc3ncnc(N[C@H]4CCN(C(=O)C5CCCC5)C4)c3c2)cc1NS(C)(=O)=O	–
0.99	0.19	0.82	0.0045	COc1ncc(-c2ccc3ncnc(NCCN4CCOCC4)c3c2)cc1NS(C)(=O)=O	Activity [5]: 992 mm3; Activity [6]: 1299 mm3; inhibition [7]: Dose-dependent effect; IC50 [8]: 0.0022 µM; Activity [9]: Non-Toxic; Activity [10]: 2 g; Activity [11]: 1.6 g; IC50 [12]: 0.006 µM; inhibition in vivo at 5 mg/kg [13]: 53%; IC50 [14]: 0.016 µM; inhibition in vivo at 25 mg/kg [15]: 62%; Ratio IC50 [16]: 100
0.35	0.07	0.37	–	Cn1c(=O)n(-c2ccc(C(C)(C)C#N)cc2)c2c3cc(-c4cnc5ccccc5c4)ccc3ncc21 [DACTOLISIB]	inhibition [20]: Active
3.2	0.41	5.8	0.034	COc1ncc(-c2ccc3ncnc(NCCN4CCCCC4)c3c2)cc1NS(=O)(=O)C1CC1	–
0.59	7.6	2	0.0026	COc1ncc(-c2ccc3ncnc(N[C@H]4CCN(C(=O)C(C)(C)C)C4)c3c2)cc1NS(C)(=O)=O	–
0.87	0.17	0.25	0.0053	COc1ncc(-c2ccc3ncnc(N[C@H]4CCN(C(=O)OC(C)(C)C)C4)c3c2)cc1NS(C)(=O)=O	–
